Values quoted from earlier work, collected in paper PMC8875809, “Comparative venomic profiles of three spiders of the genus Phoneutria” (The Journal of Venomous Animals and Toxins Including …, 2022).
Entries after “also recorded” stand apart in the source; their conditions may differ.

Assays:
sodium channels = settings: ref [78]
From the text: PnTx2-6 (MW 5288 Da) contains 48 amino acids, of which 10 are cysteine residues. […] Due to such effects on penile erection, PnTx2-6 has shown good perspectives for clinical application on erectile dysfunction treatment. […] Although we have not assayed Tx2-6 isoforms from P. eickstedtae (Pe-V) and P. pertyi (Pp- V), we believe that them has similar effects on sodium channels like PnTx2-6 isoform and similar results would be expected, because these toxins are homologous. The species P. eickstedtae and P. pertyi are rarer spiders. In addition, since Tx1 is the most abundant toxin, only this molecule was used for electrophysiology assays. We believe that our data, as they are, already bring the news to arouse ...

[1] = system: nitric oxide (NO)/cyclic GMP pathway; settings: ref [24],[35],[36]
From the text: (§1) PnTx2-6 (MW 5288 Da) contains 48 amino acids, of which 10 are cysteine residues. […] Due to such effects on penile erection, PnTx2-6 has shown good perspectives for clinical application on erectile dysfunction treatment. PnTx2-6 modulates the nitric oxide (NO)/cyclic GMP pathwa ...

penile erection = system: penile erection
From the text: as §1, with “PhTx2 toxins inhibit sodium channel inactivation. These toxins are the main responsible for the strongest neurotoxic effects of venom. […] These toxins have been explored as models for the development of a potential drug for the treatment of erectile dysfunction. || PnTx2-6 (MW” for “PnTx2-6 (MW”

For “PnTx2-6: contains 48 amino acids, of which 10 are cysteine residues; P. nigriventer toxin (P29425) (ATCAGQDQPCKETCDCCGERGECVCGGPCICRQGYFWIAWYKLANCKK; UniProt P29425 35-82, looked up)”, the “effect on sodium channel inactivation” value (sodium channels) is given as “modifies the kinetics of sodium channel inactivation; also recorded: decreases sodium channel inactivation”, the “voltage dependence of activation / sodium influx” value (sodium channels) is given as “shifting the voltage dependence of activation towards more hyperpolarized potentials, thus increasing sodium influx” and the “NO release in corpus cavernosum tissue” value [1] is given as “increased release of NO in the corpus cavernosum tissue”. The priapism (penile erection; ref [21],[24]) was “found to induce priapism” and the “penile erection in envenomation” value (penile erection; ref [29]) was “responsible for the penile erection”.
